As a reminder, the MIC is the lowest concentration that inhibits growth of the organism.

This passage reports MIC and Activity results from ChEMBL document CHEMBL6078723, “Novel steroidal β-carboline derivatives as promising antibacterial candidates against methicillin-resistant Staphylococcus aureus” (Eur J Med Chem, 2025).

For assay [1], the system named is Staphylococcus aureus. Kind of assay: Antibacterial activity against methicillin-resistant Staphylococcus aureus CGMCC1.12409 in presence of H2PO4- (reference value: 0.5 ug/ml). The format is functional.
Assay [2] relates to Staphylococcus aureus. The experiment in a line: Antibacterial activity against methicillin-resistant Staphylococcus aureus CGMCC1.12409 in presence of Fe3+ (reference value: 0.5 ug/ml). The format is functional.
For assay [3], the system named is Staphylococcus aureus. The experiment in a line: Antibacterial activity against methicillin-resistant Staphylococcus aureus CGMCC1.12409 in presence of Zn2+ (reference value: 0.5 ug/ml). It counts as functional.
The test system of assay [4] is Staphylococcus aureus. Kind of assay: Antibacterial activity against Staphylococcus aureus CGMCC1.8721 in presence of PGN. It counts as functional, organism-based.

The source made the active and inactive calls. The rule behind the calls is not given here.

With `COc1ccc2[nH]c3c(CC[C@H](C)[C@H]4CC[C@H]5[C@@H]6[C@H](O)C[C@@H]7C[C@H](O)CC[C@]7(C)[C@H]6C[C@H](O)[C@]45C)[n+](Cc4ccc(Cl)cc4)ccc3c2c1.[Br-]`, the MIC in assay [1], in assay [2] and in assay [3] was 1 µg/mL each time. Further, the result in assay [4] was Active.
